This passage reports IC50 results from patent US20240009331A1, “UROKINASE PLASMINOGEN ACTIVATOR RECEPTOR TARGETED RADIOLABELED PEPTIDE CONJUGATES” (CURASIGHT A/S, priority 2020, published 2024).

The experiment concerns the target uPAR H47C-N259C. Description: SPR inhibition of uPAR binding to immobilized uPA (uPAR H47C-N259C). On the set-up: species or system human. The following applies: inhibition of uPAR binding to immobilized prouPA S356A. As to the method:
Covalent immobilization of purified human prouPA^S356A was accomplished by injecting 12.5 μg/ml protein dissolved in 10 mM sodium acetate (pH 5.0) over a CM5 chip that had been pre-activated with NHS/EDC (N-ethyl-N′[3-[…])propyl]-carbodiimide), aiming at a surface density of >5000 resonance units (RU) corresponding to 100 fmols/mm^2. After coupling the sensor-chip was deactivated with 1 M ethanolamine. Binding of purified human uPAR as analyte was measured from 4 nM to 0.25 nM at using 10 mM HEPES, 150 mM NaCl, 3 mM EDTA (pH 7.4) containing (v/v) surfactant P20 as running buffer at a flow rate of […]. In between cycles the sensor-chip was regenerated by two consecutive 10-μl injections of 0.1 M acetic acid/HCI (pH 2.5) in 0.5 M NaCl. The inhibition of 3-fold dilutions of the compounds in question was measured for 4 nM uPAR with identical running conditions. All experiments were performed on a BiacoreT200 instrument.
For each inhibition peptide inhibition profile of uPAR binding to immobilized uPA there has been run a preceding standard curve and all calculations are based on the that standard curve.

Usually IC50 stands for the concentration at which inhibition is half-maximal. Read a high IC50 as a need for much substance.

In turn, `CC(C)C[C@H](NC(=O)[C@H](Cc1ccc(O)cc1)NC(=O)[C@@H](CCCNC(=N)N)NC(=O)[C@@H](CO)NC(=O)[C@H](Cc1ccccc1)NC(=O)[C@H](CC1CCCCC1)NC(=O)[C@@H](N)CC(=O)O)C(=O)N[C@@H](Cc1c[nH]c2ccccc12)C(=O)N[C@@H](CO)C(=O)O` [AE105, DChaFsrYLWS-OH] returned an IC50 of 4.5 ± 1.5 µM.
